From patent US20110033944A1, “METHOD FOR MEASURING HYPOCHLORITE ION” (SEKISUI MEDICAL CO., LTD., priority 2003, published 2011)

Key:
[1] = Reactivity of fluorescence probe to singlet oxygen (EP-1); format: physicochemical; details: 10 μM probe, EP-1 100 μM, pH 7.4, 37° C.
Method: (§1) In the following example, a compound wherein R^1 is 2-carboxyphenyl group, and R^2 is 4-aminophenyl group in the general formula (I) (hereinafter referred to as “APF”) and a compound wherein R^3 is 2-carboxyphenyl group, and R^4 is 4-hydroxyphenyl group in the general formula (II) (hereinafter referred to as “HPF”) were used. Each of HPF and APF is dissolved in dimethylformamide (DMF) to obtain a 10 mM solution, and then added with a 100 mM sodium phosphate buffer (pH 7.4) to obtain a final concentration of 10 μM, unless otherwise specifically mentioned.
(§2) Excitation spectra and fluorescence spectra were analyzed with Hitachi F4500. The slit width was 2.5 nm in both of the excitation spectra and fluorescence spectra. The photomultiplier voltage was 950 V. Unless otherwise specifically mentioned, excitation wavelength was 490 nm, fluorescence wavelength was 515 nm, and the measurement was performed at 37° C.
(§3) Reactivities of APF and HPF to various reactive species containing oxygen were studied. […] The measurement was performed with excitation wavelength at 500 nm and with fluorescence wavelength at 520 nm for DCFH.
A 10 μM fluorescence probe solution was put in a fluorescence cell, added with 3-(1,4-dihydro-1,4-epidioxy-1-naphthyl)propionic acid (EP-1; a final concentration of 100 μM), and was reacted for 30 minutes. […]

[2] = Reactivity of fluorescence probe to hydrogen peroxide; format: physicochemical; details: 10 μM probe, H2O2 100 μM, pH 7.4, 37° C.
Method: as §1, §2, §3
A 10 μM fluorescence probe solution was put in a fluorescence cell, added with H2O2 (a final concentration of 100 μM), and was reacted for 30 minutes. Fluorescence intensities before the addition of H2O2 and 30 minutes after the addition were measured.

neutrophils = test: Fluorescence imaging of PMA-stimulated neutrophils; format: cell-based, porcine; details: 10 μM probe, PMA 2 ng/mL, excitation 488 nm, emission 505-550 nm
Method: According to the method described in Wakeyama, H., Takeshige, K., Takayanagi, R., and Minakami S. (1982) Biochem. J. 205, 593-601 and Kakinuma, K., Kaneda, M., Chiba, T., and Ohnishi, T. (1986) J. Biol. Chem. 261, 9426-9432, neutrophils were obtained from 1.8 liters of porcine blood. Erythrocytes in the buffy coat collected from the blood were hemolyzed with a large volume of an ice-cooled 0.2% aqueous sodium chloride solution for […] and then the preparation was promptly mixed with an equal volume of a 1.6% aqueous sodium chloride solution to restore the isotonic condition. Neutrophils were separated from platelets and mononuclear cells by the Conrey-Ficoll method. The neutrophils were suspended in Krebs Ringer phosphate buffer (114 mM NaCl, 4.6 mM KCl, 2.4 mM MgSO4, 1.0 mM, CaCl2, 15 mM NaH2PO4/Na2HPO4, pH7.4).
The separated neutrophils were seeded onto a glass-bottomed dish. Then the cells were loaded with HPF or APF (10 μM) after incubation for 30 minutes at room temperature. These neutrophils were stimulated with 4β-phorbol-12-myristate-13-acetate (PMA)(2 ng/mL). Fluorescence imaging was measured twice in each experiment: one is before and the other is 10 minutes after the stimulation with PMA. […]

[3] = Reactivity of fluorescence probe to nitric oxide (NOC13); format: physicochemical; details: 10 μM probe, NOC13 100 μM, pH 7.4, 37° C.
Method: as §1, §2, §3
A 10 μM fluorescence probe solution was put in a fluorescence cell, added with 1-hydroxy-2-oxo-3-(3-aminopropyl)-3-ethyl-1-triazine (NOC13; a final concentration of 100 μM), and was reacted for 30 minutes. […]

Myeloperoxidase (human) = test: Myeloperoxidase/H2O2 system, fluorescence measurement of generated hypochlorite ion; format: biochemical; details: 10 μM probe, myeloperoxidase 11.2 nM, 150 mM NaCl, 37° C.
Method: as §1, §2
(A) By using a 100 mM sodium phosphate buffer (pH 7.4) containing 150 mM sodium chloride, a 10 μM HPF solution and a 10 μM APF solution were prepared. Myeloperoxidase (human) were added to these solutions to obtain a final concentration of 11.2 nM. Each of the solution was put in each fluorescence cell, and a change in the fluorescence intensity with passage of time was measured. The temperature of the solutions were set at 37° C. […]

[4] = Reactivity of fluorescence probe to superoxide (KO2); format: physicochemical; details: 10 μM probe, KO2 100 μM, pH 7.4, 37° C.
Method: as §1, §2, §3
A 10 μM fluorescence probe solution was put in a fluorescence cell, added with KO2 (a final concentration of 100 μM), and was reacted for 30 minutes. Fluorescence intensities before the addition of KO2 and 30 minutes after the addition were measured.

[5] = Reactivity of fluorescence probe to hydroxyl radical (H2O2 / ferrous perchlorate); format: physicochemical; details: 10 μM probe, H2O2 1 mM + ferrous perchlorate 100 μM, pH 7.4, room temperature
Method: as §1, §2, §3
A 10 μM fluorescence probe solution was added with an aqueous hydrogen peroxide solution (a final concentration of 1 mM), and further slowly added with an aqueous ferrous perchlorate (a final concentration of 100 μM). […]

[6] = Reactivity of fluorescence probe to hypochlorite ion (sodium hypochlorite); format: physicochemical; details: 10 μM probe, sodium hypochlorite 1.0 μM, pH 7.4, 37° C.
Method: as §1, §2, §3
A 10 μM fluorescence probe solution was put in a fluorescence cell, added with an aqueous sodium hypochlorite solution (a final concentration of 1.0 μM). Fluorescence intensities before and after the addition of an aqueous sodium hypochlorite solution were measured.

SMILES | Reactivity to singlet oxygen (fluorescence intensity before and 30 minutes after addition) [1] | Reactivity to hydrogen peroxide (fluorescence intensity before and 30 minutes after addition) [2] | Fluorescence intensity of probe-loaded neutrophils before and 10 minutes after stimulation with PMA (neutrophils) | Reactivity to nitric oxide (fluorescence intensity before and 30 minutes after addition) [3] | Change in fluorescence intensity with time on addition of hydrogen peroxide (FIG. 1(A)) (Myeloperoxidase (human); H2O2 1 μM) | Increase in fluorescence intensity before and after addition of hydrogen peroxide (FIG. 1(B)) (Myeloperoxidase (human); H2O2 0.1-1.0 μM, 5 minutes) | Reactivity to superoxide (fluorescence intensity before and 30 minutes after addition) [4] | Reactivity to hydroxyl radical (fluorescence intensity before and after addition) [5] | Reactivity to hypochlorite ion (fluorescence intensity before and after addition) [6]
Nc1ccc(Oc2ccc3c(-c4ccccc4C(=O)O)c4ccc(=O)cc-4oc3c2)cc1 [APF] | 9 | <1 | a significant increase was observed in fluorescence intensity | <1 | a significant increase in the fluorescence intensity was observed | fluorescence intensity was increased in a manner dependent on the concentration of the added hydrogen peroxide | 6 |  | 
O=C(O)c1ccccc1C1c2cc(Cl)c(O)cc2Oc2cc(O)c(Cl)cc21 [DCFH, 2′,7′-dichlorodihydrofluorescein, reference compound] | 26 | 190 |  | 150 |  |  | 67 | 7400 | 86
